# In patent US9073895B2 (Boehringer Ingelheim International GmbH, priority 2010, dated 2015):
# Target: T1, recombinant human FLAP protein (Homo sapiens, UniProt P20292)
# T1 construct: made in house; host or cells: Sf9 insect cells (membrane fraction, 100,000 x g pellet)
# T1 sequence (P20292 1-161): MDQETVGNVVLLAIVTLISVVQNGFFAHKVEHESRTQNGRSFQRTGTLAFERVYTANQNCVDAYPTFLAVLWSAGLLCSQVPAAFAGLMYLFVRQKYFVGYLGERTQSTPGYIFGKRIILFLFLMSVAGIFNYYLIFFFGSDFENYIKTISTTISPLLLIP
# Assay: FLAP binding assay (SPA, displacement of [125I]L-691,831)
# Conditions: membranes of sf9 cells expressing human FLAP, [125I]L-691,831 probe; read-out: hFLAP binding IC50
# Method: Compounds are assessed for the ability to bind to FLAP in a binding assay that measures compound-specific displacement of an iodinated (^125I) FLAP inhibitor via a Scintillation Proximity Assay format (adapted from S. Charleson et al., Mol. Pharmacol., 1992, 41, 873-879).
# Cell pellets produced from sf9 insect cells expressing recombinant human FLAP protein are resuspended in buffer A [15 mM Tris-HCl (pH 7.5), 2 mM MgCl2, 0.3 mM EDTA, 1 mM PMSF]. The cells are lysed with a Dounce homogenizer and the material is centrifuged at 10,000×g for 10 minutes. The supernatant is then collected and centrifuged at 100,000×g for 60 minutes. To prepare membrane protein for an assay, an aliquot of the 100,000×g pellet is resuspended in 1 ml of buffer A, Dounce homogenized, and finally subjected to polytron mixing (30 seconds). Membrane protein (25 μl, 5 μg) is mixed with WGA SPA beads (Amersham) and stirred for 1 h. To an assay plate (Perkin Elmer FlexiPlate) is added 25 μl of test compound prepared in Binding buffer [100 mM Tris (pH 7.5), 140 mM NaCl, 5% glycerol, 2 mM EDTA, 0.5 mM TCEP, 0.05% Tween 20], 25 μl of [^125I]L-691,831 (an iodinated analog of MK-591, Charleson et al. Mol. Pharmacol., 41, 873-879, 1992) and finally 50 μl of the bead/protein mixture. (final concentrations: beads, 200 μg/well; protein, 5μg/well; [^125I] probe, 0 08 nM/well(17 nCi/well). The plates are shaken for 2 h before reading on a Microbeta plate reader. Non-specific binding is determined by the addition of 10 μM cold L-691,831 compound.
row,SMILES,IC50
1,"Nc1ncc(-c2ccc(C3(C(=O)Nc4ccc5c(c4)CCC5)CCOCC3)cc2)cn1 [Example 6, 4-[4-(2-aminopyrimidin-5-yl)phenyl]-N-(2,3-dihydro-1H-inden-5-yl)tetrahydro-2H-pyran-4-carboxamide]",150 nM
2,"Nc1ncc(-c2ccc(C3(C(=O)Nc4ccc5c(c4)OCO5)CCOCC3)cc2)cn1 [Example 9, 4-[4-(2-aminopyrimidin-5-yl)phenyl]-N-(1,3-benzodioxol-5-yl)tetrahydro-2H-pyran-4-carboxamide]",200 nM
3,"Cc1cc(C)nc(NC(=O)C2(c3ccc(-c4cnc(N)nc4)cc3)CCOCC2)c1 [Example 10, 4-[4-(2-aminopyrimidin-5-yl)phenyl]-N-(4,6-dimethylpyridin-2-yl)tetrahydro-2H-pyran-4-carboxamide]",240 nM
4,"CC(C)(C)c1ccc(NC(=O)C2(c3ccc(-c4cnc(N)nc4)cc3)CCOCC2)cc1 [Example 17, 4-[4-(2-aminopyrimidin-5-yl)phenyl]-N-(4-tert-butylphenyl)tetrahydro-2H-pyran-4-carboxamide]",330 nM
5,"CCOC(=O)c1sc(NC(=O)C2(c3ccc(-c4cnc(N)nc4)cc3)CCOCC2)nc1-c1ccccc1 [Example 19, ethyl 2-[({4-[4-(2-aminopyrimidin-5-yl)phenyl]tetrahydro-2H-pyran-4-yl}carbonyl)amino]-4-phenyl-1,3-thiazole-5-carboxylate]",120 nM
6,"Nc1ncc(-c2ccc(C3(C(=O)Nc4ccc(Cc5ccncc5)cc4)CCOCC3)cc2)cn1 [Example 28, 4-[4-(2-aminopyrimidin-5-yl)phenyl]-N-[4-(pyridin-4-ylmethyl)phenyl]tetrahydro-2H-pyran-4-carboxamide]",121 nM
7,"CC(=O)N1CCc2ccc(NC(=O)C3(c4ccc(-c5cnc(N)nc5)cc4)CCOCC3)cc21 [Example 29, N-(1-acetyl-2,3-dihydro-1H-indol-6-yl)-4-[4-(2-aminopyrimidin-5-yl)phenyl]tetrahydro-2H-pyran-4-carboxamide]",190 nM
8,"Nc1ncc(-c2ccc(C3(C(=O)Nc4cc(C(F)(F)F)ccn4)CCOCC3)cc2)cn1 [Example 31, 4-[4-(2-aminopyrimidin-5-yl)phenyl]-N-[4-(trifluoromethyl)pyridin-2-yl]tetrahydro-2H-pyran-4-carboxamide]",140 nM
9,"Nc1ncc(-c2ccc(C3(C(=O)Nc4cccc(S(=O)(=O)N5CCOCC5)c4)CCOCC3)cc2)cn1 [Example 35, 4-[4-(2-aminopyrimidin-5-yl)phenyl]-N-[3-(mopholin-4-ylsulfonyl)phenyl]tetrahydro-2H-pyran-4-carboxamide]",390 nM
10,"CC(=O)N1CCc2cc(NC(=O)C3(c4ccc(-c5cnc(N)nc5)cc4)CCOCC3)ccc21 [Example 42, N-(1-acetyl-2,3-dihydro-1H-indol-5-yl)-4-[4-(2-aminopyrimidin-5-yl)phenyl]tetrahydro-2H-pyran-4-carboxamide]",310 nM
11,"Nc1ncc(-c2ccc(C3(C(=O)Nc4cccc(S(=O)(=O)C(F)(F)F)c4)CCOCC3)cc2)cn1 [Example 44, 4-[4-(2-aminopyrimidin-5-yl)phenyl]-N-{3-[(trifluoromethyl)sulfonyl]phenyl}tetrahydro-2H-pyran-4-carboxamide]",270 nM
12,"Nc1ncc(-c2ccc(C3(C(=O)Nc4cccc(CN5CCCC5)c4)CCOCC3)cc2)cn1 [Example 50, 4-[4-(2-aminopyrimidin-5-yl)phenyl]-N-[3-(pyrrolidin-1-ylmethyl)phenyl]tetrahydro-2H-pyran-4-carboxamide]",440 nM
13,"CN1CCN(c2cccc(NC(=O)C3(c4ccc(-c5cnc(N)nc5)cc4)CCOCC3)c2)CC1 [Example 53, 4-[4-(2-aminopyrimidin-5-yl)phenyl]-N-[3-(4-methylpiperazin-1-yl)phenyl]tetrahydro-2H-pyran-4-carboxamide]",280 nM
14,"Nc1ncc(-c2ccc(C3(C(=O)Nc4cc(-c5ccccn5)no4)CCOCC3)cc2)cn1 [Example 56, 4-[4-(2-aminopyrimidin-5-yl)phenyl]-N-[3-(pyridin-2-yl)-1,2-oxazol-5-yl]tetrahydro-2H-pyran-4-carboxamide]",380 nM
15,"Nc1ncc(-c2ccc(C3(C(=O)Nc4cc(-c5cccnc5)no4)CCOCC3)cc2)cn1 [Example 57, 4-[4-(2-aminopyrimidin-5-yl)phenyl]-N-[3-(pyridin-3-yl)-1,2-oxazol-5-yl]tetrahydro-2H-pyran-4-carboxamide]",260 nM
16,"Cn1c(=O)c2cc(NC(=O)C3(c4ccc(-c5cnc(N)nc5)cc4)CCOCC3)cnc2n(C)c1=O [Example 69, 4-[4-(2-aminopyrimidin-5-yl)phenyl]-N-(1,3-dimethyl-2,4-dioxo-1,2,3,4-tetrahydropyrido[2,3-d]pyrimidin-6-yl)tetrahydro-2H-pyran-4-carboxamide]",260 nM
17,"CN(C)S(=O)(=O)c1cccc(NC(=O)C2(c3ccc(-c4cnc(N)nc4)cc3)CCOCC2)c1 [Example 77, 4-[4-(2-aminopyrimidin-5-yl)phenyl]-N-[3-(dimethylsulfamoyl)phenyl] tetrahydro-2H-pyran-4-carboxamide]",110 nM
18,"CCOC(=O)c1ccnc(NC(=O)C2(c3ccc(-c4cnc(N)nc4)cc3)CCOCC2)c1 [Example 84, ethyl 2-[({4-[4-(2-aminopyrimidin-5-yl)phenyl]tetrahydro-2H-pyran-4-yl}carbonyl)amino]pyridine-4-carboxylate]",180 nM
19,"Nc1ncc(-c2ccc(C3(C(=O)Nc4ccc(C(=O)O)cn4)CCC3)cc2)cn1 [Example 96, 6-[({1-[4-(2-aminopyrimidin-5-yl)phenyl]cyclobutyl}carbonyl)amino]pyridine-3-carboxylic acid]",26 nM
20,"Nc1ncc(-c2ccc(C3(C(=O)Nc4ccc(O)c(C(=O)O)c4)CCC3)cc2)cn1 [Example 101, 5-[({1-[4-(2-aminopyrimidin-5-yl)phenyl]cyclobutyl}carbonyl)amino]-2-hydroxybenzoic acid]",47 nM
21,"CS(=O)(=O)NC(=O)c1ccc(NC(=O)C2(c3ccc(-c4cnc(N)nc4)cc3)CCC2)nc1 [Example 105, 6-[({1-[4-(2-aminopyrimidin-5-yl)phenyl]cyclobutyl}carbonyl)amino]-N-(methylsulfonyl)pyridine-3-carboxamide]",17.5 nM
22,"Cc1ccc(NC(=O)C2(c3ccc(-c4cnc(N)nc4)cc3)CCOCC2)nc1 [Example 139, 4-[4-(2-aminopyrimidin-5-yl)phenyl]-N-(5-methylpyridin-2-yl)tetrahydro-2H-pyran-4-carboxamide]",110 nM
23,"Cc1ccnc(NC(=O)C2(c3ccc(-c4cnc(N)nc4)cc3)CCOCC2)c1 [Example 140, 4-[4-(2-aminopyrimidin-5-yl)phenyl]-N-(4-methylpyridin-2-yl)tetrahydro-2H-pyran-4-carboxamide]",230 nM
24,"Cc1cccc(NC(=O)C2(c3ccc(-c4cnc(N)nc4)cc3)CCOCC2)n1 [Example 141, 4-[4-(2-aminopyrimidin-5-yl)phenyl]-N-(6-methylpyridin-2-yl)tetrahydro-2H-pyran-4-carboxamide]",190 nM
25,"Cc1cccc(-c2cnc(NC(=O)C3(c4ccc(-c5cnc(N)nc5)cc4)CCOCC3)nc2)c1 [Example 156, 4-[4-(2-aminopyrimidin-5-yl)phenyl]-N-[5-(3-methylphenyl)pyrimidin-2-yl]tetrahydro-2H-pyran-4-carboxamide]",490 nM
26,"Nc1ncc(-c2ccc(C3(C(=O)Nc4ccc(C(=O)O)cn4)CCOCC3)cc2)cn1 [Example 157, 6-[({4-[4-(2-aminopyrimidin-5-yl)phenyl]tetrahydro-2H-pyran-4-yl}carbonyl)amino]pyridine-3-carboxylic acid]",410 nM
27,"CC(C)(O)c1ccc(NC(=O)C2(c3ccc(-c4cnc(N)nc4)cc3)CCOCC2)nc1 [Example 159, 4-[4-(2-aminopyrimidin-5-yl)phenyl]-N-[5-(2-hydroxypropan-2-yl)pyridin-2-yl]tetrahydro-2H-pyran-4-carboxamide]",420 nM
28,"Nc1ncc(-c2ccc(C3(C(=O)Nc4ccccn4)CCCCC3)cc2)cn1 [Example 160, 1-[4-(2-aminopyrimidin-5-yl)phenyl]-N-(pyridin-2-yl)cyclohexanecarboxamide]",13 nM
29,"CCCCCc1ccnc(NC(=O)C2(c3ccc(-c4cnc(N)nc4)cc3)CCOCC2)c1 [Example 161, 4-[4-(2-aminopyrimidin-5-yl)phenyl]-N-(4-pentylpyridin-2-yl)tetrahydro-2H-pyran-4-carboxamide]",31 nM
30,"COc1nc(-c2ccc(C3(C(=O)Nc4ccc(-c5csc(C)n5)cn4)CCOCC3)cc2)cnc1N [Example 181, 4-[4-(5-amino-6-methoypyrazin-2-yl)phenyl]-N-[5-(2-methyl-1,3-thiazol-4-yl)pyridin-2-yl]tetrahydro-2H-pyran-4-carboxamide]",110 nM
